Read-outs that look alike come from different tables or passages of the source.

In general, ED50 refers to the dose that gives a 50% effect, or the effect in half of the subjects. The term IC50 denotes the concentration at which inhibition is half-maximal.

Assay [1] has as its system adjuvant-induced arthritis in rats. The assay can be described thus: Established adjuvant-induced arthritis in rats. To be noted: for ED50: Rattus norvegicus, read-out: Adjuvant Arthritis ED50; for Adjuvant Arthritis, decrease in paw volume from controls at dose indicated: @ 9 mg/kg. It counts as in vivo, rat (male Charles River Lewis).
The test system of assay [2] is phenylquinone writhing (mice). Put plainly: Phenylquinone writhing test. In kind it is in vivo, mouse (female white). Particulars: for ED50: Mus musculus, po, read-out: PQW ED50; for PQW ED50: oral. The protocol: Phenylquinone Writhing Test
A standard procedure for detecting and comparing the analgesic activity of compounds in this series for which there is a good correlation with human efficacy is the standard phenylquinone writhing test modified from Siegmund, et al., Proc. Soc. Exp. Biol. Med., 95, 729 (1957). A test compound suspended in 1% methylcellulose was given orally to fasted (17-21 hours) female white mice, 5-20 animals per double blind test. Aqueous (0.01% phenyl-p-benzoquinone)phenylquinone, 0.20 ml per mouse, was injected intraperitoneally 6 minutes before observations were begun. […] Rev., 11, 115-145 (1947). Data for some of the compounds is summarized in Table 4 together with data for some standard analgetic antiinflammatory drugs.
For orientation: Writhing tests count abdominal constrictions after an irritant is injected.

For assay [3], the target named is T1, bovine seminal vesicle prostaglandin synthetase (PGS) (Bos taurus, UniProt O62664).
T1 construct: purchased Miles; host or cells: bovine seminal vesicle
T1 sequence (O62664 25-600): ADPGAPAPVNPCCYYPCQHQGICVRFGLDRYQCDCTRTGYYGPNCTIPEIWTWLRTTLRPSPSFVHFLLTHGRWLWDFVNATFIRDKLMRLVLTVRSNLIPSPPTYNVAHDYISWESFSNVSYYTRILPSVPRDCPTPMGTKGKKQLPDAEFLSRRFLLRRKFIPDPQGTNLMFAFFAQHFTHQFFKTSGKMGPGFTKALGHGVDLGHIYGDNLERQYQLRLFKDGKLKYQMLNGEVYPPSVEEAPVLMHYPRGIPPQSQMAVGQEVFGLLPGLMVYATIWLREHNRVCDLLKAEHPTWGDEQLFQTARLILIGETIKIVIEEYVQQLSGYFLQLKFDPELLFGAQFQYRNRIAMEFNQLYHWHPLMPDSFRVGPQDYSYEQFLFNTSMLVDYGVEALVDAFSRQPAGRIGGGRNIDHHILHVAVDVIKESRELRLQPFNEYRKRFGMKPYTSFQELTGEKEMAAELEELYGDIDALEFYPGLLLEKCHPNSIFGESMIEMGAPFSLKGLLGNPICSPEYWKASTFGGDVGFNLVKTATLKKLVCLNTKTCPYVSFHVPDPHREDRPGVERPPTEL
Put plainly: Prostaglandin synthetase inhibition assay. In kind it is biochemical. To be noted: 14C-arachidonic acid 0.02 mM, pH 8.5, 10 minutes. The protocol: Prostaglandin Synthetase Inhibition Assay
The resulting labelled prostaglandins were isolated on small columns of Bio-Sil® A silica gel. The reaction was buffered with 0.13M Tris.Cl (pH 8.5) and included 0.6 mM epinephrine, 2.1 mM reduced glutathione, and 0.09 mM EDTA, which favored PGE2 as the primary product [C. […] Miles bovine seminal vesicle prostaglandin synthetase (20 μg), inhibitor, cofactor, and buffer were mixed and preincubated for two minutes at 37° C. The substrate was added to initiate the reaction which was run for 10 minutes. The reaction was stopped by freezing in a slurry of dry ice/ethanol. All reactions were run in duplicate. Inhibitors were bead-milled overnight and diluted in reaction buffer (0.2M Tris.Cl, pH 8.5). Inhibition was calculated by the following formula: [formula]

Setting [4] is: oral, 7 daily doses, ED50 % decrease from control paw volume, uninjected left hind paw.
Setting [5] is: fasted female white mice, phenylquinone i.p.

As to `CC(C)Cc1ccc(C(C)C(=O)O)cc1` (stereo not drawn) [Ibuprofen, ibuprofen, reference compound], the ED50 in assay [1] (setting [4]) worked out at 80 mg/kg; in assay [2] (setting [5]) it was 10 mg/kg.
Consider `O=S(=O)(c1nc2c([nH]1)/C(=C/c1ccccc1)c1ccccc1-2)C(F)(F)F` [Example 5, 1,8-Dihydro(or 3,8-dihydro)-2-(trifluoromethylsulfonyl)-8-(phenylmethylene)indeno[1,2-d]imidazole, E isomer], for which the ED50 came out at 5.3 mg/kg in assay [1] (setting [4]) and 1 mg/kg in assay [2] (setting [5]). Also, half-maximal inhibition in assay [3] (IC50) was put at 23 nM.
Consider `COc1ccc(C=C2c3ccccc3-c3nc(S(=O)(=O)C(F)(F)F)[nH]c32)cc1` [Example 9, 1,8-Dihydro(or 3,8-dihydro)-2-(trifluoromethylsulfonyl)-8-[(4-methoxyphenyl)methylene]indeno[1,2-d]imidazole, E isomer], for which the 50% effective dose (ED50) in assay [1] (setting [4]) came out at 1.95 mg/kg. The “PQW ED50” value in assay [2] (setting [5]) turned out to be 1.44 mg/kg. This molecule displayed a 50% inhibitory concentration (IC50) in assay [3] of 20 nM.
For the molecule `FC(F)(F)Sc1nc2c([nH]1)/C(=C/c1ccccc1)c1ccccc1-2` [Example 2], the “Adjuvant Arthritis, decrease in paw volume from controls at dose indicated” value (shortened to “Adjuvant Arthritis, decrease”) in assay [1] (oral, 7 daily doses) is reported as 12%. Besides, in assay [2] (setting [5]), the ED50 amounted to 35 mg/kg. The same molecule yielded an IC50 in assay [3] of under 75000 nM.
On to `CCCCC1C(=O)N(c2ccccc2)N(c2ccccc2)C1=O` [Phenylbutazone, phenylbutazone, reference compound], for which the ED50 in assay [1] (setting [4]) was determined as 10 mg/kg; in assay [2] (setting [5]), 80 mg/kg. Moreover, the IC50 in assay [3] turned out to be 270000 nM.
With `O=S(=O)(c1nc2c([nH]1)/C(=C\c1ccccc1)c1ccccc1-2)C(F)(F)F` [Example 3], in assay [1] (oral, 7 daily doses), the “Adjuvant Arthritis, decrease” value is 37%. Also, the ED50 in assay [2] (setting [5]) is over 81 mg/kg. The molecule also gave an IC50 in assay [3] of 930 nM.
For the molecule `[O-][S+](c1nc2c([nH]1)C(=Cc1ccc(F)cc1)c1ccccc1-2)C(F)(F)F` (stereo not drawn) [Example 12, 1,8-Dihydro(or 3,8-dihydro)-2-(trifluoromethylsulfinyl)-8-[(4-fluorophenyl)methylene]indeno[1,2-d]imidazole, E isomer], the “Adjuvant Arthritis, decrease” value in assay [1] (oral, 7 daily doses) is on record as 48%. Moreover, the ED50 in assay [2] (setting [5]) came out at 0.76 mg/kg. Moreover, the IC50 in assay [3] is 480 nM.
In the case of `COc1ccc(C=C2c3ccccc3-c3nc(SC(F)(F)F)[nH]c32)cc1` [Example 7], in assay [1] (oral, 7 daily doses), the “Adjuvant Arthritis, decrease” value came out at 39%. Also, the ED50 in assay [2] (setting [5]) was over 108 mg/kg. Also, in assay [3], half-maximal inhibition (IC50) required 580 nM.
As to `COc1ccc(C=C2c3ccccc3-c3nc(S(=O)(=O)C(F)(F)F)[nH]c32)cc1` [Example 8, 1,8-dihydro(or 3,8-dihydro)-2-(trifluoromethylsulfonyl)-8-[(4-methoxyphenyl)methylene]-indeno[1,2-d]imidazole, Z isomer], in assay [1] (oral, 7 daily doses), the “Adjuvant Arthritis, decrease” value came to 5%. In addition, in assay [2] (setting [5]), the “PQW ED50” value is over 36 mg/kg. Inhibition in assay [3] was half-maximal at 310 nM (IC50).
On to `CC(=O)Oc1ccccc1C(=O)O` [Aspirin, aspirin, reference compound], for which the ED50 in assay [2] is 135 mg/kg.
`COc1ccc(CC2c3ccccc3-c3nc(S(=O)(=O)C(F)(F)F)[nH]c32)cc1` (stereo not drawn) [Example 4, 1,8-DIHYDRO(OR 3,8-DIHYDRO)-2-(TRIFLUOROMETHYLSULFONYL)-8-[(4-METHOXYPHENYL)METHYL]INDENO[1,2-d]-IMIDAZOLE] had an IC50 in assay [3] of 1200 nM.
For `O=S(=O)(c1nc2c([nH]1)C(=Cc1ccc(F)cc1)c1ccccc1-2)C(F)(F)F` [Example 13], the figures for the median effective dose (ED50) in assay [1] (setting [4]) and in assay [2] (setting [5]) were 9.8 mg/kg and 53.6 mg/kg, respectively. The molecule further came in with an IC50 in assay [3] of 420 nM.
For `Fc1ccc(C=C2c3ccccc3-c3nc(SC(F)(F)F)[nH]c32)cc1` [Example 11], the “Adjuvant Arthritis, decrease” value in assay [1] (oral, 7 daily doses) is 39%. In assay [2] (setting [5]), the ED50 turned out to be 21 mg/kg. The molecule also gave an IC50 in assay [3] of 2700 nM.
Turning to `COc1ccc2c(c1)c(CC(=O)O)c(C)n2C(=O)c1ccc(Cl)cc1` [Indomethacin, indomethacin, reference compound], the ED50 came out at 0.25 mg/kg in assay [1] (po) and 0.35 mg/kg in assay [2].

Values taken from patent publication US4548943A, “Antiinflammatory, analgesic, or anti-primary dysmenorrheal arylmethylene- and arylmethylindenoimidazoles” (E. I. Du Pont de Nemours and Company, priority 1984, dated 1985).
